# Measurements: ChEMBL document CHEMBL5325500, “Mannich Base PIP-199 Is a Chemically Unstable Pan-Assay Interference Compound” (J Med Chem, 2023)
# Active and inactive are the calls of the source. The calls are words filed in the database; no cut-off is given here.
# Legend:
# [1] = Stability of compound in H2O/MeCN with 0.1% formic acid assessed as retention time of intact compound at 250 uM measured after 1.5 hrs by LC-MS analysis; type: physicochemical
# [2] = Stability in phosphate buffer at pH 6 assessed as drug degradation at 250 uM measured after 1.5 hrs by 1H-NMR analysis; type: physicochemical; conditions: read-out: Drug degradation
# Homo sapiens [3] = species on record: Homo sapiens; assay: Displacement of N-terminal TAMRA-labeled SRDLFSVTFDLGFCSPDSDD-NH2 tracer from RMI1/RMI2 (unknown origin) in 50 mM Tris buffer pH 8.8 at 125 uM incubated for 1 hr by fluorescence polarization assay
# [4] = Stability in phosphate buffer at pH 7 to 8 assessed as drug degradation at 250 uM measured after 1.5 hrs by 1H-NMR analysis; type: physicochemical; conditions: pH 7, 1.5 h
# Homo sapiens [5] = species on record: Homo sapiens; assay: Binding affinity to biotinylated RMI1/RMI2 (unknown origin) at 12.5 to 200 uM associated for 60 secs and dissociated for 60 secs by SPR analysis; conditions: dose 12.5-200 µM, time 120.0 sec
# [6] = Stability of compound in H2O/MeCN with 0.1% formic acid assessed as (2-phenyl-1H-indol-3-yl)(pyridin-2-yl)methanol formation by measuring retention time at 250 uM measured after 1.5 hrs by LC-MS analysis; type: physicochemical
# [7] = Stability of compound in phosphate buffer at pH 7 to 8 assessed as formation of 2-phenyl-3-(pyridin-2-ylmethylene)-3H-indole 1-oxide at 50 uM measured every 0.1 secs for 3 mins by UV-Vis spectroscopy; type: physicochemical; conditions: pH 7, 2.778e-05 h, time 0.1 sec
# [8] = Solubility of compound assessed as precipitation at >250 uM; type: physicochemical
# [9] = Stability of compound in 10 mM Tris buffer at pH 8.8 assessed as drug decomposition at 250 uM measured after 1.5 hrs by NMR analysis; type: physicochemical; conditions: pH 8.8, 1.5 h
# [10] = Stability of compound in H2O/MeCN with 0.1% formic acid assessed as formation of 2-phenyl-3-(pyridin-2-ylmethylene)indoline-1,2-diol by measuring retention time at 250 uM measured after 1.5 hrs by LC-MS analysis; type: physicochemical
# [11] = Stability of compound in 50 mM Tris buffer at pH 8.8 assessed as drug decomposition at 250 uM measured after 1.5 hrs by NMR analysis; type: physicochemical; conditions: pH 8.8, 1.5 h
# [12] = Stability of compound in H2O/MeCN with 0.1% formic acid assessed as isomer of nitrone formation by measuring retention time at 250 uM measured after 1.5 hrs by LC-MS analysis; type: physicochemical
# [13] = Stability of compound in H2O/MeCN with 0.1% formic acid assessed as formation of 2-phenyl-3-(pyridin-2-ylmethylene)-3H-indole 1-oxide by measuring retention time at 250 uM measured after 1.5 hrs by LC-MS analysis; type: physicochemical
# [14] = Stability in potassium phosphate buffer at pH 6 to 8 assessed as drug degradation at 250 uM measured after 1.5 hrs by 1H-NMR analysis; type: physicochemical; conditions: pH 6, 1.5 h
# [15] = Stability of compound in 10 to 50 mM HEPES buffer at pH 7.4 assessed as drug decomposition at 250 uM measured after 1.5 hrs by NMR analysis; type: physicochemical; conditions: pH 7.4, 1.5 h
# [16] = Stability of compound in 50 mM phosphate buffer at pH 6 to 8 assessed as drug decomposition at 250 uM measured after 1.5 hrs by NMR analysis; type: physicochemical; conditions: pH 6, 1.5 h
# Homo sapiens [17] = species on record: Homo sapiens; assay: Displacement of N-terminal TAMRA-labeled SRDLFSVTFDLGFCSPDSDD-NH2 tracer from RMI1/RMI2 (unknown origin) in 10 mM Tris buffer pH 8.8 at 125 uM incubated for 1 hr by fluorescence polarization assay
# [18] = Stability of compound in 10 to 50 mM NH4Cl buffer at pH 8.8 assessed as drug decomposition at 250 uM measured after 1.5 hrs by NMR analysis; type: physicochemical; conditions: pH 8.8, 1.5 h
# [19] = Stability of compound in H2O/MeCN with 0.1% formic acid assessed as elimination of piperazine at 250 uM measured after 1.5 hrs by LC-MS analysis; type: physicochemical
smiles,measurement,setting,value
CCOC(=O)N1CCN(C(c2ccccn2)c2c(-c3ccccc3)[nH]c3ccccc23)CC1 (stereo not drawn),Retention_time,[1],8.7 min
same,"degraded at 1.5 h, 250 µM",[2],50%
same,Activity,Homo sapiens [3],inactive
same,Stability,[4],Stable
same,Activity,Homo sapiens [5],inactive
same,Retention_time,[6],7.3 min
CCOC(=O)N1CCN(C(c2ccccc2)c2c(-c3ccccc3)[nH]c3ccccc23)CC1 (stereo not drawn),Activity,Homo sapiens [3],inactive
c1ccc(-c2[nH]c3ccccc3c2C(c2ccccn2)N2CCCCC2)cc1 (stereo not drawn),Activity,Homo sapiens [3],inactive
same,Activity,Homo sapiens [5],inactive
CCOC(=O)N1CCN(C(c2ccccn2)c2ccc3ccccc3c2O)CC1 (stereo not drawn),Activity,Homo sapiens [3],inactive
same,Activity,Homo sapiens [5],inactive
CCOC(=O)N1CCN(C(c2ccccn2)c2c(C)[nH]c3ccccc23)CC1 (stereo not drawn),Activity,Homo sapiens [3],inactive
same,Activity,Homo sapiens [5],inactive
CCOC(=O)N1CCN(C(c2ccccn2)c2c(-c3ccccc3)n(O)c3ccccc23)CC1 (stereo not drawn),Stability,[7],Unstable
same,solubility,[8],Insoluble
same,Stability,[9],Unstable
same,Retention_time,[10],8.2 min
same,Stability,[11],Stable
same,Activity,Homo sapiens [3],inactive
same,Retention_time,[12],9.5 min
same,Retention_time,[13],11.4 min
same,Stability,[14],Unstable
same,Stability,[15],Unstable
same,Stability,[16],Unstable
same,Activity,Homo sapiens [17],inactive
same,Activity,Homo sapiens [5],inactive
same,Stability,[18],Unstable
same,Stability,[19],Unstable
